# In patent US20030134342A1, “Binding-specific peptides, binding-specific carrier molecules, and uses thereof” (priority 2001, published 2003):
# Where a SMILES comes first, the peptide text is derived from it.
# Columns and labels:
# [1] = system: human myeloid leukemia cell line HL60; experiment: Proliferation of HL60 cells: cell number after 7 days culture; assay type: cell-based; conditions: for No. Cells: HL60, after 7 days; for Percent relative to Controls: HL60 cell number after 7 days
# From the text: The number of cells after 7 days culture growth were counted in the presence or absence of the different molecules. Results are shown for the free G5 12-8B peptide alone (artificially synthesized), phage displaying G5 12-8B, the free A2 11-24 peptide, phage displaying the A2 11-24 peptide, a combination of the free G5 and A2 peptides, a combination of the free pure with phage displaying the peptides, and several concentrations of peptide.
# (§1) Such inhibition is not the result of the killing of the cells. The data are graphed in the Figures.
# The control number of cells per milliliter (2.6) is an average of results from dual controls (2.6×10^6).
# (§2) DMSO, dimethylsulfoxide, is a chemical that induces HL60 cellular differentiation.
# [2] = system: human myeloid leukemia cell line HL60; experiment: Viability of HL60 cells, trypan blue; assay type: cell-based; conditions: for Day 5 Viability: 5 day; for Day 7 Viability: 7 day; for Day 9 Viability: 9 day
# Experimental: (§3) Studies were conducted of the effects of the free G5 12-8B (artificially synthesized), phage displaying G5 12-8B, the free A2 11-24 peptide, phage displaying the A2 11-24 peptide, a combination of the free G5 and A2 peptides, a combination of pure peptides plus phage displaying the peptides, and several concentrations of peptide.
# [3] = system: human myeloid leukemia cell line HL60; experiment: Differentiation of HL60 cells; assay type: cell-based
# From the text: FIG. 1 illustrates the effects of several peptides on the differentiation of the human myeloid leukemia cell line HL60.
# as §1, §2
# The level of differentiation of the HL60 cells after 5 or 7 days growth in the presence or absence of the various phage and peptides combinations described above are shown in FIG. 1. The high level of differentiation that has been achieved is notable from the graph in FIG. 1. The levels of differentiation in the presence of peptide exceed that produced by the presence of phage alone.
# [4] = system: human myeloid leukemia cell line HL60; experiment: Differentiation of HL60 cells; assay type: cell-based; remark: listed apart in the source
# CML cells = experiment: ELISA binding of phage displaying peptides to fixed cells: CML cells; set-up: species or system human; conditions: in words
# Experimental: (§4) Preliminary experiments were performed to identify specific peptides by using cells from patients diagnosed with CLL, CML, and AML. The screening was performed by incubating the cells with the phage-peptides from the library. This incubation allows interaction between the peptide and the cell. The binding step was followed by several washes to eliminate free phage. Phage bound on the cell surface was eluted.
# (§5) After the last round of binding with one cell type, the eluted phage was plated on an agar plate with the appropriate selection antibiotics. Each individual colony, corresponding to one individual peptide sequence, was amplified in a 96-well plate. After purification, these peptides were tested for their ability to bind to the cells in a microtiter plate by ELISA.
# (§6) Each peptide was dispensed in a 96-well plate, containing cells previously fixed. Each colony was tested in a triplicate assay with the appropriate controls. After incubation of cells with an individual clone, the wells were washed to eliminate free phage. The bound phages were detected by using a monoclonal anti-M13 antibody/horseradish peroxidase (HRP) conjugate. After addition of the HRP substrate, the intensity of the coloration was measured by spectrophotometry. The light absorbance values (optical density values, O.D. values) are proportional to the number of phage bound to the cells.
# (§7) The binding to various cell types were examined to evaluate the cellular specificity of the phage clones. For example, the clones from phage eluted from CLL patient cells were assayed for their ability to bind cells from an AML patient. Cells from normal donors (non-leukemic) were also evaluated to ascertain leukemia cell specificity.
# (§8) Peripheral blood and bone marrow samples were collected from patients after informed consent. The samples were collected in tubes containing sodium citrate. Mononuclear cells were isolated by Ficoll-Hypaque density gradient separation and collection of the cells at a density of 1.077 g/mL.
# (§9) The wells of a 96-well plate were pre-treated with 100 μL of poly-L-lysine (0.01 mg/mL in phosphate-buffered saline, 120 mM NaCl, 2.7 mM KCl, 10 mM phosphate buffer, “PBS”) for 2-16 hours at room temperature. After draining the poly-L-lysine from the wells, the excess poly-L-lysine was removed from the wells by flicking. The cells were washed with PBS, then suspended in PBS and diluted to a final concentration of […]. The cell suspension (200 μL; 250,000 cells) were added to each well needed for the assay.
# (§10) The plates were centrifuged at 500 g for about 5 minutes in a microplate carrying centrifuge when available. The cells were fixed to the wells through the addition of glutaraldehyde (100 μL of 0.5%) and incubating at room temperature for about an hour. The glutaraldehyde was removed and the cell-coated wells washed once with PBS. Alternatively, the cells were permitted to settle to the well bottoms for about 4 hours at 37° C., and the glutaraldehyde fixative was added after removing the PBS.
# (§11) A glycine solution (200 μl of 0.1 M glycine in PBS) containing bovine serum albumin (BSA; 1%) was added to the wells and permitted to incubate for 30 minutes to block excess glutaraldehyde. The glycine was removed, and the cell-coated wells washed once with PBS. A sodium pyrophosphate solution (200 μL of 0.3 mg/mL NaPPi) was added to the wells and incubated for an hour at room temperature to neutralize lysine charges. The pyrophosphate solution was removed and the wells washed once with PBS. Multiwell microtiter plates with cell-coated wells were stored at 4° C. with fresh PBS solution in the coated wells.
# (§12) The cells to be studied for binding were suspended in PBS and adsorbed onto to a poly-L-lysine pretreated 96-well plate and kept at 4° C. The PBS was removed from the wells and an H2O2 solution in PBS (6% H2O2 in 200 μL/well) was added. […]
# AML cells = experiment: ELISA binding of phage displaying peptides to fixed cells: AML cells; set-up: species or system human; conditions: in words
# Experimental: as §4, §5, §6, §7, §8, §9, §10, §11, §12
# [5] = system: normal peripheral blood cells (lymphocytes and granulocytes); experiment: ELISA binding of phage displaying peptides to fixed cells: normal peripheral blood cells; set-up: species or system human; conditions: in words
# Experimental: as §4, §5, §6, §7, §8, §9, §10, §11, §12
# CLL cells = experiment: ELISA binding of phage displaying peptides to fixed cells: CLL cells; set-up: species or system human; conditions: in words
# Experimental: as §4, §5, §6, §7, §8, §9, §10, §11, §12
# [6] = system: all myeloid cells, both malignant and nonmalignant; experiment: ELISA binding of phage displaying peptides to fixed cells: all myeloid cells; set-up: species or system human; conditions: in words
# Experimental: as §4, §5, §6, §7, §8, §9, §10, §11, §12
# [7] = Viability of HL60 cells, trypan blue; assay type: cell-based; conditions: human
# Experimental: as §3
# [8] = system: human bone marrow AML cells; experiment: Effect of phage-peptides on differentiation, cell number and viability of freshly obtained AML patient bone marrow cells cultured seven days; assay type: cell-based; conditions: for Number of Cells / Percent Differentiation: phage-peptides; for Percent differentiated in Specimen 1 / Percent differentiated in Specimen 2: peptides in bacteriophage, AML cells cultured seven days in vitro
# From the text: The effect of various phage-peptides were studied on the differentiation of cells from two AML patients.
compound,measurement,setting,value
NCCCC[C@H](NC(=O)CNC(=O)[C@H](CO)NC(=O)[C@H](Cc1c[nH]c2ccccc12)NC(=O)[C@H](CCC(N)=O)NC(=O)[C@H](CCC(N)=O)NC(=O)[C@H](Cc1ccccc1)NC(=O)[C@H](CCC(=O)O)NC(=O)[C@@H](N)CS)C(=O)N[C@@H](CS)C(=O)O [G5 12-8B peptide] (H-CEFQQWSGKC-OH; N-terminus and C-terminus assumed),No. Cells,[1]; free peptide at 10^−4 M,1.2 10^6 cell/mL
same,Percent relative to Controls,[1]; free peptide at 10^−4 M,48%
same,Day 5 Viability,[2],98%
same,Day 7 Viability,[2],96%
same,Day 9 Viability,[2],90%
same,Day 5 % Diff.,[3]; free peptide at 10^−4 M,22%
same,"Day 5 % Diff., figure in parentheses",[3]; free peptide at 10^−4 M,183%
same,Day 7 % Diff.,[3]; free peptide at 10^−4 M,31%
same,"Day 7 % Diff., figure in parentheses",[3]; free peptide at 10^−4 M,194%
same,Day 9 % Diff.,[4]; free peptide at 10^−4 M,22%
CEFQQWSGKC [G5 12-8B],binding of phage displaying the peptide to CML cells,CML cells,bind
same,binding of phage displaying the peptide to AML cells,AML cells,bind
same,binding of phage displaying the peptide to blood cells (lymphocytes or granulocytes),[5],bind
same,binding of phage displaying the peptide to CLL cells,CLL cells,bind
same,"binding of phage displaying the peptide to all myeloid cells, both malignant and nonmalignant",[6],bind
NETTVREY [A7 11-24],binding of phage displaying the peptide to blood cells (lymphocytes or granulocytes),[5],bind
same,binding of phage displaying the peptide to CLL cells,CLL cells,bind
"C[S+](C)[O-] [DMSO, dimethylsulfoxide, reference compound]",No. Cells,[1]; concentration not given,0.9 10^6 cell/mL
same,Percent relative to Controls,[1]; concentration not given,30%
same,viability at 5 days,[7],98%
same,viability at 7 days,[7],97%
same,viability at 9 days,[7],82%
same,Day 5 % Diff.,[3]; concentration not given,off scale
same,Day 7 % Diff.,[3]; concentration not given,off scale
same,Day 9 % Diff.,[4]; concentration not given,off scale
NHVCSRLG [B4(2)],binding of phage displaying the peptide to CML cells,CML cells,bind
same,binding of phage displaying the peptide to AML cells,AML cells,bind
same,binding of phage displaying the peptide to blood cells (lymphocytes or granulocytes),[5],bind
same,binding of phage displaying the peptide to CLL cells,CLL cells,bind
IEETARKG [A2 11-24 phage],Number of Cells,[8]; Patient 1,0.75 106
same,Percent Differentiation,[8]; Patient 1,79.2%
same,Number of Cells,[8]; Patient 2,0.33 106
same,Percent Differentiation,[8]; Patient 2,49.5%
same,Percent differentiated in Specimen 1,[8],79%
same,Percent differentiated in Specimen 2,[8],50%
same,No. Cells,[1]; phage 75,1.6 10^6 cell/mL
same,Percent relative to Controls,[1]; phage 75,62%
same,Day 5 % Diff.,[3]; phage 75,18%
same,"Day 5 % Diff., figure in parentheses",[3]; phage 75,150%
same,Day 7 % Diff.,[3]; phage 75,52%
same,"Day 7 % Diff., figure in parentheses",[3]; phage 75,325%
same,Day 9 % Diff.,[4]; phage 75,64%
IEETARKG [D9 12-8B],binding of phage displaying the peptide to CML cells,CML cells,bind
same,binding of phage displaying the peptide to AML cells,AML cells,bind
same,binding of phage displaying the peptide to blood cells (lymphocytes or granulocytes),[5],bind
same,binding of phage displaying the peptide to CLL cells,CLL cells,bind
same,"binding of phage displaying the peptide to all myeloid cells, both malignant and nonmalignant",[6],bind
EFQQWSGK [G5 12-8B phage],Number of Cells,[8]; Patient 1,1.11 106
same,Percent Differentiation,[8]; Patient 1,27.9%
same,Number of Cells,"[8]; Patient 2, listed as GS-12-8B",0.31 106
same,Percent Differentiation,"[8]; Patient 2, listed as GS-12-8B",61%
same,Percent differentiated in Specimen 1,[8],28%
same,Percent differentiated in Specimen 2,[8],61%
same,No. Cells,[1]; phage 75,3.8 10^6 cell/mL
same,Percent relative to Controls,[1]; phage 75,140%
same,Day 5 % Diff.,[3]; phage 75,17%
same,"Day 5 % Diff., figure in parentheses",[3]; phage 75,142%
same,Day 7 % Diff.,[3]; phage 75,46%
same,"Day 7 % Diff., figure in parentheses",[3]; phage 75,288%
same,Day 9 % Diff.,[4]; phage 75,46%
CC[C@H](C)[C@H](NC(=O)[C@@H](N)CS)C(=O)N[C@@H](CCC(=O)O)C(=O)N[C@@H](CCC(=O)O)C(=O)N[C@H](C(=O)N[C@@H](C)C(=O)N[C@@H](CCCNC(=N)N)C(=O)N[C@@H](CCCCN)C(=O)NCC(=O)N[C@@H](CS)C(=O)O)[C@@H](C)O [A2 11-24 peptide] (H-CIEETARKGC-OH; N-terminus and C-terminus assumed),No. Cells,[1]; free peptide at 10^−4 M,2.0 10^6 cell/mL
same,Percent relative to Controls,[1]; free peptide at 10^−4 M,77%
same,Day 5 Viability,[2],100%
same,Day 7 Viability,[2],96%
same,Day 9 Viability,[2],87%
same,Day 5 % Diff.,[3]; free peptide at 10^−4 M,18%
same,"Day 5 % Diff., figure in parentheses",[3]; free peptide at 10^−4 M,150%
same,Day 7 % Diff.,[3]; free peptide at 10^−4 M,30%
same,"Day 7 % Diff., figure in parentheses",[3]; free peptide at 10^−4 M,188%
same,Day 9 % Diff.,[4]; free peptide at 10^−4 M,25%
NETTVREY [C9 11-24],binding of phage displaying the peptide to CML cells,CML cells,bind
same,binding of phage displaying the peptide to AML cells,AML cells,bind
same,binding of phage displaying the peptide to blood cells (lymphocytes or granulocytes),[5],bind
same,binding of phage displaying the peptide to CLL cells,CLL cells,bind
same,"binding of phage displaying the peptide to all myeloid cells, both malignant and nonmalignant",[6],bind
